Among the data in patent US12187713B2, “Immunomodulators, compositions and methods thereof” (Betta Pharmaceuticals Co., Ltd, priority 2019, dated 2025) are IC50 values, retold here.

Chain of PD-1/PD-L1 (Q9NZQ7 19-238): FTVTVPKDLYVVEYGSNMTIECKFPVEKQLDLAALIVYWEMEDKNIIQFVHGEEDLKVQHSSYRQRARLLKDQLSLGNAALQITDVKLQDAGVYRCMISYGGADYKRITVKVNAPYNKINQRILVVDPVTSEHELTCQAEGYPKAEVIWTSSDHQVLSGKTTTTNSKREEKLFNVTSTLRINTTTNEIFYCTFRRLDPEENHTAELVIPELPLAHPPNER

The target of one assay is PD-1/PD-L1 (Homo sapiens (Human), UniProt Q9NZQ7). Briefly: PD-1/PD-L1 Binding Assay (Alphascreen). To be noted: numeric values. The procedure:
PD-1/PD-L1 Binding Assay (Alphascreen)
The assays were conducted in a standard black 384-well polystyrene plate with a final volume of 20 μL. Inhibitors were first serially diluted in DMSO and then added to the plate wells before the addition of other reaction components. The final concentration of DMSO in the assay was […]. Add 100 nL/well of compound to the 384 reaction plate (6008280, PerkinElmer) with Echo and centrifuge at 1000 rpm for 1 minute. Add 5 μL/well 4×PD-L1 solutions to the 384 reaction plate, centrifuge at 1000 rpm for 1 minute, and add 5 μL/well 4×PD-1 solutions, centrifuge at 1000 rpm for 1 minute, and incubate at 25° C. for 15 minutes. The concentrations of the compounds were 300, 100, 33.33, 11.11, 3.70, 1.23, 0.41, 0.137, 0.046, 0.015, 0 nM, respectively. Add 10 μL/well 2× Anti-6×His AlphaLISA Acceptor beads and Streptavidin Donor beads solution (PerkinElmer-AL356F) to the above 384 reaction plate, centrifuge at 1000 rpm for 1 minute, and incubate at 25° C. in the dark for 120 minutes. Read the AlphaLISA signal value using the Envision Reader. IC50 determination was performed by fitting the curve of percent control activity versus the log of the inhibitor concentration using the GraphPad Prism 8.0 software.
Background: In Alpha technology, singlet oxygen from a donor bead excites a nearby acceptor bead.
In general, IC50 refers to the concentration needed to halve the response being measured. A high value points to weaker potency in that assay. `Cc1c(-c2nc3cc(CNC[C@@H]4CCC(=O)N4)c(OC(F)F)cc3o2)cccc1-c1cccc(-c2nc3cc(CN4CCC[C@H]4C(=O)O)c(OC(F)F)cc3o2)c1C` [Example 19, ((6-(difluoromethoxy)-2-(3′-(6-(difluoromethoxy)-5-(((((S)-5-oxopyrrolidin-2-yl)methyl)amino)methyl)benzo[d]oxazol-2-yl)-2,2′-dimethyl-[1,1′-biphenyl]-3-yl)benzo[d]oxazol-5-yl)methyl)-L-proline] displayed a 50% inhibitory concentration (IC50) of 1.3 nM.

In the case of `Cc1c(Nc2nccc3cc(CN4CCOCC4)cnc23)cccc1-c1cccc(-c2nc3cc(CN4CCC[C@H]4C(=O)O)c(OC(F)F)cc3o2)c1C` [Example 176, ((6-(difluoromethoxy)-2-(2,2′-dimethyl-3′-((3-(morpholinomethyl)-1,7-naphthyridin-8-yl)amino)-[1,1′-biphenyl]-3-yl)benzo[d]oxazol-5-yl)methyl)-L-proline], the IC50 was found to be 0.9 nM.

Compound `Cc1c(-c2ccc3c(c2)CNC3)cccc1-c1cccc(-c2nc3cc(CN4CCC[C@H]4C(=O)O)c(OC(F)F)cc3o2)c1C` [Example 289, ((6-(difluoromethoxy)-2-(3′-(isoindolin-5-yl)-2,2′-dimethyl-[1,1′-biphenyl]-3-yl)benzo[d]oxazol-5-yl)methyl)-L-proline] returned an IC50 of 0.66 nM. Same read-out and setting: for `Cc1c(-c2nc3cc(CN)c(OC(F)F)cc3o2)cccc1-c1cccc(-c2nc3cc(CN4CCC[C@H]4C(=O)O)c(OC(F)F)cc3o2)c1C` [Example 24, ((2-(3′-(5-(aminomethyl)-6-(difluoromethoxy)benzo[d]oxazol-2-yl)-2,2′-dimethyl-[1,1′-biphenyl]-3-yl)-6-(difluoromethoxy)benzo[d]oxazol-5-yl)methyl)-L-proline] the value was 0.98 nM; for `Cc1c(-c2ccc(CNCCO)c(F)c2)cccc1-c1cccc(-c2nc3cc(CN4CCC[C@H]4C(=O)O)c(OC(F)F)cc3o2)c1C` [Example 239, ((6-(difluoromethoxy)-2-(3″-fluoro-4″-(((2-hydroxyethyl)amino)methyl)-2,2′-dimethyl-[1,1′:3′,1″-terphenyl]-3-yl)benzo[d]oxazol-5-yl)methyl)-L-proline], 0.99 nM.

With `Cc1c(-c2nc3cc(CN4CC(O)C4)c(OC(F)F)cc3o2)cccc1-c1cccc(-c2nc3cc(CN4CCC[C@H]4C(=O)O)c(OC(F)F)cc3o2)c1C` [Example 20, ((6-(difluoromethoxy)-2-(3′-(6-(difluoromethoxy)-5-((3-hydroxyazetidin-1-yl)methyl)benzo [d]oxazol-2-yl)-2,2′-dimethyl-[1,1′-biphenyl]-3-yl)benzo[d]oxazol-5-yl)methyl)-L-proline], the IC50 is 1.6 nM.

Still in this assay, the particulars now being: range symbols.
Consider `Cc1c(-c2ccc3c(c2)CN(CCC(=O)O)C3)cccc1-c1cccc(-c2nc3cc(CN4CCC[C@H]4C(=O)O)c(OC(F)F)cc3o2)c1C` [Example 290, ((2-(3′-(2-(2-carboxyethyl)isoindolin-5-yl)-2,2′-dimethyl-[1,1′-biphenyl]-3-yl)-6-(difluoromethoxy)benzo[d]oxazol-5-yl)methyl)-L-proline], for which the IC50 was in the range of 0.1 to 5 nM.

Consider `Cc1c(-c2ccc(CN3Cc4ccc(NC(N)=O)cc4C3)c(F)c2)cccc1-c1cccc(-c2nc3cc(CN4CCC[C@H]4C(=O)O)c(OC(F)F)cc3o2)c1C` [Example 258, ((6-(difluoromethoxy)-2-(3″-fluoro-2,2′-dimethyl-4″-((5-ureidoisoindolin-2-yl)methyl)-[1,1′:3′,1″-terphenyl]-3-yl)benzo[d]oxazol-5-yl)methyl)-L-proline], for which the IC50 lay within 5 to 50 nM. As to `Cc1c(-c2nc3cc(CN4CCC[C@H]4C(=O)O)c(OC(F)F)cc3o2)cccc1-c1cccc(-c2ccc(CNC[C@@H]3CCC(=O)N3)c(OC(F)F)c2)c1F` [Example 216, ((6-(difluoromethoxy)-2-(3″-(difluoromethoxy)-2′-fluoro-2-methyl-4″-(((((S)-5-oxopyrrolidin-2-yl)methyl)amino)methyl)-[1,1′:3′,1″- terphenyl]-3-yl)benzo[d]oxazol-5-yl)methyl)-L-proline], the IC50 fell in the range of 0.1 to 5 nM. Same read-out and setting: for `Cc1c(-c2nc3cc(CN4CCC[C@H]4C(=O)O)c(OC(F)F)cc3o2)cccc1-c1cccc(-c2ccc(CN3CCCC3)nc2F)c1C` [Example 270, ((6-(difluoromethoxy)-2-(3′-(2-fluoro-6-(pyrrolidin-1-ylmethyl)pyridin-3-yl)-2,2′-dimethyl-[1,1′-biphenyl]-3-yl)benzo[d]oxazol-5-yl)methyl)-L-proline] the value was 5 to 50 nM; for `Cc1c(-c2ccc3c(c2)CN(CC(=O)O)C3)cccc1-c1cccc(-c2nc3cc(CN4CCC[C@H]4C(=O)O)c(OC(F)F)cc3o2)c1C` [Example 291, ((2-(3′-(2-(carboxymethyl)isoindolin-5-yl)-2,2′-dimethyl-[1,1′-biphenyl]-3-yl)-6-(difluoromethoxy)benzo[d]oxazol-5-yl)methyl)-L-proline], 0.1 to 5 nM.

In the case of `Cc1c(-c2nc3cc(CN4CCCC4C)c(OC(F)F)cc3o2)cccc1-c1cccc(-c2nc3cc(CN4CCC[C@H]4C(=O)O)c(OC(F)F)cc3o2)c1C` (stereo partly drawn) [Example 38, ((6-(difluoromethoxy)-2-(3′-(6-(difluoromethoxy)-5-((2-methylpyrrolidin-1-yl)methyl)benzo[d]oxazol-2-yl)-2,2′-dimethyl-[1,1′-biphenyl]-3-yl)benzo[d]oxazol-5-yl)methyl)-L-proline], the IC50 was 0.1 to 5 nM. On the same count and under the same terms, the figure for `Cc1c(-c2nc3cc(CN4CCC[C@H]4C(=O)O)c(OC(F)F)cc3o2)cccc1-c1cccc(-c2cnc(CN3CCCC3)cc2F)c1C` [Example 262, ((6-(difluoromethoxy)-2-(3′-(4-fluoro-6-(pyrrolidin-1-ylmethyl)pyridin-3-yl)-2,2′-dimethyl-[1,1′-biphenyl]-3-yl)benzo[d]oxazol-5-yl)methyl)-L-proline] is 5 to 50 nM. The same measure, in the same setting: for `Cc1c(-c2nc3cc(CN4CCC[C@H]4C(=O)O)c(OC(F)F)cc3o2)cccc1-c1cccc(-c2cnc(CN3CCCC3)c(F)c2)c1C(F)F` [Example 268, ((6-(difluoromethoxy)-2-(2′-(difluoromethyl)-3′-(5-fluoro-6-(pyrrolidin-1-ylmethyl)pyridin-3-yl)-2-methyl-[1,1′-biphenyl]-3-yl)benzo[d]oxazol-5-yl)methyl)-L-proline] the value was 0.1 to 5 nM; for `Cc1c(-c2nc3cc(CN4CCC[C@H]4C(=O)O)c(OC(F)F)cc3o2)cccc1-c1cccc(-c2nc3cc(CN4CCC5(C4)CC5(F)F)cc(C#N)c3o2)c1C` (stereo partly drawn) [Example 153, ((2-(3′-(7-cyano-5-((1,1-difluoro-5-azaspiro[2.4]heptan-5-yl)methyl)benzo [d]oxazol-2-yl)-2,2′-dimethyl-[1,1′-biphenyl]-3-yl)-6-(difluoromethoxy)benzo[d]oxazol-5-yl)methyl)-L-proline], 0.1 to 5 nM; for `Cc1c(Nc2cc(CN3CCCC3)ccn2)cccc1-c1cccc(-c2nc3cc(OC(F)F)c(CN4CCC[C@H]4C(=O)O)cc3o2)c1C` [Example 183, ((5-(difluoromethoxy)-2-(2,2′-dimethyl-3′-((4-(pyrrolidin-1-ylmethyl)pyridin-2-yl)amino)-[1,1′-biphenyl]-3-yl)benzo[d]oxazol-6-yl)methyl)-L-proline], 5 to 50 nM. The same measure, in the same setting: for `Cc1c(-c2nc3cc(CN4CCCC4)cc(C(F)(F)F)c3[nH]2)cccc1-c1cccc(-c2nc3cc(CN4CCC[C@H]4C(=O)O)c(OC(F)F)cc3o2)c1C` [Example 301, ((6-(difluoromethoxy)-2-(2,2′-dimethyl-3′-(5-(pyrrolidin-1-ylmethyl)-7-(trifluoromethyl)-1H-benzo[d]imidazol-2-yl)-[1,1′-biphenyl]-3-yl)benzo[d]oxazol-5-yl)methyl)-L-proline] the value was 5 to 50 nM; for `Cc1c(-c2nc3cc(CN4CCC[C@H]4C(=O)O)c(OC(F)F)cc3o2)cccc1-c1cccc(-c2nc3cc(CN4CCCCC4CCO)cc(C#N)c3o2)c1C` (stereo partly drawn) [Example 135, ((2-(3′-(7-cyano-5-((2-(2-hydroxyethyl)piperidin-1-yl)methyl)benzo[d]oxazol-2-yl)-2,2′-dimethyl-[1,1′-biphenyl]-3-yl)-6-(difluoromethoxy)benzo[d]oxazol-5-yl)methyl)-L-proline], 0.1 to 5 nM. The compound `Cc1c(Nc2nccc3cc(CN4CCC(O)C4)cnc23)cccc1-c1cccc(-c2nc3cc(CN4CCC[C@@H]4C(=O)O)c(OC(F)F)cc3o2)c1C` (stereo partly drawn) [Example 182, ((6-(difluoromethoxy)-2-(3′-((3-((3-hydroxypyrrolidin-1-yl)methyl)-1,7-naphthyridin-8-yl)amino)-2,2′-dimethyl-[1,1′-biphenyl]-3-yl)benzo[d]oxazol-5-yl)methyl)-D-proline] had an IC50 of 0.1 to 5 nM. The same measure, in the same setting: the figure for `CC(=O)NCCNCc1cc(Cl)c(OCc2cccc(-c3cccc(-c4nc5cc(CN6CCC[C@H]6C(=O)O)c(OC(F)F)cc5o4)c3C)c2C)cc1OCc1cccc(C#N)c1` [Example 210] is 0.1 to 5 nM; for `Cc1c(-c2nc3cc(CN4CCC[C@H]4C(=O)O)c(OC(F)F)cc3o2)cccc1-c1cccc(-c2nc3cc(CNCc4cn(C)cn4)cc(C#N)c3o2)c1C` [Example 160, ((2-(3′-(7-cyano-5-((((1-methyl-1H-imidazol-4-yl)methyl)amino)methyl)benzo[d]oxazol-2-yl)-2,2′-dimethyl-[1,1′-biphenyl]-3-yl)-6-(difluoromethoxy)benzo[d]oxazol-5-yl)methyl)-L-proline] it is 0.1 to 5 nM.
